The structures appear in SMILES notation.

T1 sequence (O14842 whole entry): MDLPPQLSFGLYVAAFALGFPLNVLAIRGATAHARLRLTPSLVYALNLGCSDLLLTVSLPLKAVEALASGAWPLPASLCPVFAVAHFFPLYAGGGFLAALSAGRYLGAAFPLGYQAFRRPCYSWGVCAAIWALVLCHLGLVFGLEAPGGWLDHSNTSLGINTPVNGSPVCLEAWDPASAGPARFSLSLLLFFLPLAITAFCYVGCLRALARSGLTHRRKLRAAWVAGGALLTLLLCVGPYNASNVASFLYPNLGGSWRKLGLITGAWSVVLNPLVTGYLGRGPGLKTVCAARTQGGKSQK

This assay has as its target T1, GPR40 of human origin (Homo sapiens, UniProt O14842).
T1 construct: expressed in transfected cells
The assay is described as follows: Agonist action on GPR40 of human origin (Ca2+ fluorescence in CHO cells). Format: cell-based. The note with it: CHO cell strain stably expressing GPR40 of human origin; Ca2+ concentration fluctuation, fluorescent calcium indicator. The procedure: A CHO cell strain stably expressing GPR40 of human origin was used to determine the agonist action of a subject compound. This cell strain was seeded in a clear bottom 96 well plate at 4×10^4 cells/100 μL/well. The cell strain was cultured in a CO2 incubator overnight using a Ham's F-12 medium containing a 10% fetal bovine serum, 100 U/mL penicillin, 0.1 mg/mL streptomycin, and 400 μg/mL Geneticin. Calcium 4 Assay Kit (Molecular Devices) was used as a fluorescent calcium indicator. One mL of 77 mg/mL probenecid (Invitrogen) was added to 100 mL of a calcium indicator solution to prepare a solution (loading solution) mixed with a 20 mM HEPES-containing Hanks' balanced salt solution (HBSS) in equal proportions. 200 μL of the loading solution was added to the cells from which the culture solution was removed, and the cells were cultured in a CO2 incubator for 1 hour. The subject compound was diluted with a 20 mM HEPES-containing HBSS and was added to the cells by 50 μL, and the fluctuation of the Ca^2+ concentration was measured by an intracellular ion analyzer. The EC50 value of the subject compound was calculated using the dose-response curve of fluorescence intensity variation.
In general, EC50 refers to the concentration needed to bring the measured effect to its halfway point. As for `[O-][s+]1nc(O)cc1-c1ccc(OCc2cccc(Cl)c2)cc1` (single isomer, unassigned) [Example 89, 5-[4-[(3-chlorophenyl)methoxy]phenyl]isothiazol-3-ol 1-oxide(A)], the EC50 is < 300 nM.
Next, `[O-][s+]1nc(O)cc1-c1ccc(OCc2cccc(N3CCC(F)(F)CC3)c2)cc1` (single isomer, unassigned) [Example 93, 5-[4-[[3-(4,4-difluoropiperidin-1-yl)phenyl]methoxy]phenyl]isothiazol-3-ol 1-oxide(A)]: 300 to 3000 nM.
The value for `[O-][s+]1nc(O)cc1-c1ccc(OCc2cccc3c2OCC3)cc1` (single isomer, unassigned) [Example 95, 5-[4-(2,3-dihydro-1-benzofuran-7-ylmethoxy)phenyl]isothiazol-3-ol 1-oxide(A)] was 300 to 3000 nM; that for `Cc1cccc(C)c1-c1cccc2c1CC[C@H]2Oc1ccc(-c2cc(O)n[s+]2[O-])cc1` (single isomer, unassigned) [Example 107] was < 300 nM; that for `[O-][s+]1nc(O)cc1-c1ccc(O[C@@H]2CCc3c(C4CC4)cccc32)cc1` (single isomer, unassigned) [Example 109] was < 300 nM.
Next, `[O-][s+]1nc(O)cc1-c1ccc(O[C@@H]2CCc3c(-c4cccnc4)cccc32)cc1` (single isomer, unassigned) [Example 111]: < 300 nM; `[O-][s+]1nc(O)cc1-c1ccc(O[C@@H]2CCc3c(-c4cccnc4C(F)(F)F)cccc32)cc1` (single isomer, unassigned) [Example 117]: 300 to 3000 nM; `[O-][s+]1nc(O)cc1-c1ccc(O[C@@H]2CCc3c(-c4ccc(N5CCCCC5)nc4)cccc32)cc1` (single isomer, unassigned) [Example 118]: < 300 nM.
Turning to `CC1(C)CC=C(c2cccc3c2CC[C@H]3Oc2ccc(-c3cc(O)n[s+]3[O-])cc2)CC1` (single isomer, unassigned) [Example 120], the EC50 lay within 300 to 3000 nM.
Next, `Cc1nc(OCCC(C)(C)O)ccc1-c1cccc2c1CC[C@H]2Oc1ccc(-c2cc(O)n[s+]2[O-])cc1` (single isomer, unassigned) [Example 135]: < 300 nM; `Cc1cc(OCCCS(C)(=O)=O)cc(C)c1-c1cccc2c1CC[C@H]2Oc1ccc(-c2cc(O)n[s+]2[O-])cc1` (single isomer, unassigned) [Example 138]: < 300 nM; `CCOCCOc1cc(C)c(-c2cccc3c2CC[C@H]3Oc2ccc(-c3cc(O)n[s+]3[O-])cc2)c(C)c1` (single isomer, unassigned) [Example 139]: < 300 nM.
The value for `[O-][s+]1nc(O)cc1-c1ccc(OCc2cccc(Oc3ccccc3)c2)cc1` (stereo not shown) [Example 2, 5-(4-((3-phenoxyphenyl)methoxy)phenyl)isothiazol-3-ol 1-oxide] was 300 to 3000 nM; that for `[O-][s+]1nc(O)cc1-c1ccc(OC2CCc3cc(Cl)ccc32)cc1` (stereo not shown) [Example 6, 5-(4-(5-chloro-2,3-dihydro-1H-inden-1-yloxy)phenyl)isothiazol-3-ol 1-oxide] was 300 to 3000 nM.
The value for `Cc1cccc(C)c1-c1cccc(COc2ccc(-c3cc(O)n[s+]3[O-])cc2)c1` (stereo not shown) [Example 8, 5-(4-((3-(2,6-dimethylphenyl)phenyl)methoxy)phenyl)isothiazol-3-ol 1-oxide] was < 300 nM.
On to `Cc1cccc(C)c1-c1cccc(COc2ccc(C3=CC(O)=NS3(=O)=O)cc2)c1` [Example 9, 5-(4-((3-(2,6-dimethylphenyl)phenyl)methoxy)phenyl)isothiazol-3-ol 1,1-dioxide], for which the EC50 lay within 300 to 3000 nM.
Next, `Cc1cc(OCCC(C)(C)O)ncc1-c1cccc(COc2ccc(-c3cc(O)n[s+]3[O-])cc2)c1C` (stereo not shown) [Example 10, 5-(4-((3-(6-(3-hydroxy-3-methylbutoxy)-4-methylpyridin-3-yl)-2-methylphenyl)methoxy)phenyl)isothiazol-3-ol 1-oxide]: < 300 nM; `Cc1nc(OCCC(C)(C)O)ccc1-c1cccc(COc2ccc(-c3cc(O)n[s+]3[O-])cc2)c1C` (stereo not shown) [Example 11, 5-(4-((3-(6-(3-hydroxy-3-methylbutoxy)-2-methylpyridin-3-yl)-2-methylphenyl)methoxy)phenyl)isothiazol-3-ol 1-oxide]: < 300 nM; `Cc1cc(OCCC(C)(C)O)nc(C)c1-c1cccc(COc2ccc(-c3cc(O)n[s+]3[O-])cc2)c1C` (stereo not shown) [Example 12, 5-(4-((3-(2,4-dimethyl-6-(3-hydroxy-3-methylbutoxy)pyridin-3-yl)-2-methylphenyl)methoxy)phenyl)isothiazol-3-ol 1-oxide]: < 300 nM.
Next, `Cc1cc(OCCC(C)(C)O)cc(C)c1-c1cccc(COc2ccc(-c3cc(O)n[s+]3[O-])cc2)c1C` (stereo not shown) [Example 13, 5-(4-((3-(2,6-dimethyl-4-(3-hydroxy-3-methylbutoxy)phenyl)-2-methylphenyl)methoxy)phenyl)isothiazol-3-ol 1-oxide]: < 300 nM; `CCOCCOc1cc(C)c(-c2cccc(COc3ccc(-c4cc(O)n[s+]4[O-])cc3)c2)c(C)c1` (stereo not shown) [Example 17, 5-(4-((3-(2,6-dimethyl-4-(2-ethoxyethoxy)phenyl)phenyl)methoxy)phenyl)isothiazol-3-ol 1-oxide(A)]: < 300 nM.
Next, `CCOCCOc1cc(C)c(-c2cccc(COc3ccc(-c4cc(O)n[s+]4[O-])cc3)c2)c(C)n1` (stereo not shown) [Example 19, 5-(4-((3-(2,4-dimethyl-6-(2-ethoxyethoxy)pyridin-3-yl)phenyl)methoxy)phenyl)isothiazol-3-ol 1-oxide(A)]: < 300 nM.
With `CCOCCOc1cc(C)c(-c2cccc(COc3ccc(-c4cc(O)n[s+]4[O-])cc3)c2)c(C)c1F` (stereo not shown) [Example 22, 5-(4-((3-(2,6-dimethyl-4-(2-ethoxyethoxy)-3-fluorophenyl)phenyl)methoxy)phenyl)isothiazol-3-ol 1-oxide(A)], the EC50 is < 300 nM.
The value for `Cc1cc(OCCCS(C)(=O)=O)cc(C)c1-c1cccc(COc2ccc(-c3cc(O)n[s+]3[O-])cc2)c1C` (stereo not shown) [Example 23, 5-(4-((3-(2,6-dimethyl-4-(3-(methylsulfonyl)propoxy)phenyl)-2-methylphenyl)methoxy)phenyl)isothiazol-3-ol 1-oxide(A)] was < 300 nM.
The value for `Cc1cc(OCCCS(C)(=O)=O)nc(C)c1-c1cccc(COc2ccc(-c3cc(O)n[s+]3[O-])cc2)c1` (stereo not shown) [Example 24, 5-(4-((3-(2,4-dimethyl-6-(3-(methylsulfonyl)propoxy)pyridin-3-yl)phenyl)methoxy)phenyl)isothiazol-3-ol 1-oxide(A)] was < 300 nM; that for `Cc1cc(OCCCS(C)(=O)=O)c(F)c(C)c1-c1cccc(COc2ccc(-c3cc(O)n[s+]3[O-])cc2)c1` (stereo not shown) [Example 27, 5-(4-((3-(2,6-dimethyl-3-fluoro-4-(3-(methylsulfonyl)propoxy)phenyl)phenyl)methoxy)phenyl)isothiazol-3-ol 1-oxide(A)] was < 300 nM; that for `Cc1cc(OC2CCS(=O)(=O)CC2)cc(C)c1-c1cccc(COc2ccc(-c3cc(O)n[s+]3[O-])cc2)c1` (stereo not shown) [Example 28, 5-(4-((3-(2,6-dimethyl-4-((1,1-dioxidetetrahydro-2H-thiopyran-4-yl)oxy)phenyl)phenyl)methoxy)phenyl)isothiazol-3-ol 1-oxide(A)] was < 300 nM.
The value for `Cc1cc(OC2CCS(=O)(=O)CC2)cc(C)c1-c1cccc(COc2ccc(-c3cc(O)n[s+]3[O-])cc2)c1C` (stereo not shown) [Example 29, 5-(4-((3-(2,6-dimethyl-4-((1,1-dioxidetetrahydro-2H-thiopyran-4-yl)oxy)phenyl)-2-methylphenyl)methoxy)phenyl)isothiazol-3-ol 1-oxide(A)] was < 300 nM; that for `Cc1cc(OCCC(C)(C)O)cc(C)c1-c1cccc(COc2ccc(-c3cc(O)n[s+]3[O-])cc2)c1C` (stereo not shown) [Example 31, 5-(4-((3-(2,6-dimethyl-4-(3-hydroxy-3-methylbutoxy)phenyl)-2-methylphenyl)methoxy)phenyl)isothiazol-3-ol 1-oxide(A)] was < 300 nM; that for `Cc1cc(OCCCN2CCCC2=O)cc(C)c1-c1cccc(COc2ccc(-c3cc(O)n[s+]3[O-])cc2)c1` (stereo not shown) [Example 33] was < 300 nM.
Turning to `Cc1cc(OCCCN2CCCC2=O)nc(C)c1-c1cccc(COc2ccc(-c3cc(O)n[s+]3[O-])cc2)c1` (stereo not shown) [Example 35, 5-(4-((3-(2,4-dimethyl-6-(3-(2-oxopyrrolidin-1-yl)propoxy)pyridin-3-yl)phenyl)methoxy)phenyl)isothiazol-3-ol 1-oxide(A)], the EC50 is < 300 nM.
Next, `Cc1nc(OCCCN2CCCC2=O)nc(C)c1-c1cccc(COc2ccc(-c3cc(O)n[s+]3[O-])cc2)c1C` (stereo not shown) [Example 37, 5-(4-((3-(4,6-dimethyl-2-(3-(2-oxopyrrolidin-1-yl)propoxy)pyrimidin-5-yl)-2-methylphenyl)methoxy)phenyl)isothiazol-3-ol 1-oxide(A)]: 300 to 3000 nM.
The value for `Cc1cc(OCC2(C)COC2)cc(C)c1-c1cccc(COc2ccc(-c3cc(O)n[s+]3[O-])cc2)c1C` (stereo not shown) [Example 42, 5-(4-((3-(2,6-dimethyl-4-((3-methyl-3-oxetanyl)methoxy)phenyl)-2-methylphenyl)methoxy)phenyl)isothiazol-3-ol 1-oxide(A)] was < 300 nM.
On to `Cc1cc(OCC2(C)COC2)c(F)c(C)c1-c1cccc(COc2ccc(-c3cc(O)n[s+]3[O-])cc2)c1` (stereo not shown) [Example 43], for which the EC50 was < 300 nM.

The values are drawn from patent US8476287B2, “3-hydroxy-5-arylisothiazole derivative” (Mochida Pharmaceutical Co., Ltd., priority 2009, dated 2013).
